Assay: Fluorescent detection of Cu2+ in seawater (high salt)
Conditions: 1 μM dye in seawater; zero to 10 μM added Cu2+ (CuCl2)
Procedure: The metal-ion indicators of the present invention can be used to detect low levels of target ions in the presence of very high concentrations of other mono- and divalent cations. For example, a solution of a green fluorescent phenanthroline derivative (as described in Example 1) is diluted into freshly collected, unfiltered seawater to give a dye concentration of 1 μM. Using 10 mM EGTA, pH 7.20, 100 mM KCL in 10 mM MOPS as a standard, the fluorescence emission of the indicator solution is scanned from 450 nm to 650 nm in a Perkin Elmer PE-450 fluorimeter with excitation at 488 nm.

O=C1OC2(c3ccc(O)cc3Oc3cc(O)ccc32)c2ccc(NC(=S)Nc3cc4cccnc4c4ncccc34)cc21
fluorescence emission remaining, of original emission intensity, after added Cu^2+: approximately 10%

Source: US6013802A, “Fluorescent conjugates of metal-chelating nitrogen heterocycles” (Molecular Probes, Inc., priority 1997, dated 2000)
